Molecular target: human PDE1B enzyme (Homo sapiens (Human), UniProt Q01064)
Experiment: IMAP TR-FRET PDE1B enzymatic assay
Format: biochemical
Settings: negative log of half-maximal molar inhibitory concentration; 200 nM FAM-cAMP; values given as bins
Outline: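 Full-length GST-tagged human PDE1B (250 pg/well) in IMAP BSA buffer with 10 U/ml calmodulin and 2.5 mM CaCl2; compound pre-incubated 5 min at room temperature, then 200 nM (final) FAM-cAMP for 30 min. IMAP binding reagent/Tb added, 1 h; TR-FRET 520/490 ratio read. IC50 from sigmoidal dose-response fit.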

| Compound | PDE1b (pIC50) |
| --- | --- |
| COc1nc(C(C)C)nc2c1CCN(C(=O)c1c(C)oc3ncnc(NC4(C)CC4)c13)C2 [Example 27, 5-[4-Methoxy-2-(propan-2-yl)-5H,6H,7H,8H-pyrido[3,4-d]pyrimidine-7-carbonyl]-6-methyl-N-(1-methylcyclopropyl)furo[2,3-d]pyrimidin-4-amine] | >8 |
| Cc1oc2ncnc(NC3(C)CC3)c2c1C(=O)NCc1cc(C2CC2)ncn1 [Example 686, N-[(6-Cyclopropylpyrimidin-4-yl)methyl]-6-methyl-4-[(1-methylcyclopropyl)amino]furo[2,3-d]pyrimidine-5-carboxamide] | >8 |
| Cc1oc2ncnc(NC3(C)CC3)c2c1C(=O)N1CCC(c2ccc(Cl)cn2)C1 (stereo not drawn) [Example 348, 5-[3-(5-Chloropyridin-2-yl)pyrrolidine-1-carbonyl]-6-methyl-N-(1-methylcyclopropyl)furo[2,3-d]pyrimidin-4-amine] | >8 |
| Cc1oc2ncnc(NC3(C)CC3)c2c1C(=O)N1CCC(c2nccc(NCCF)n2)CC1 [Example 26, (4-(4-((2-Fluoroethyl)amino)pyrimidin-2-yl)piperidin-1-yl)(6-methyl-4-((1-methylcyclopropyl)amino)furo[2,3-d]pyrimidin-5-yl)methanone] | >8 |
| Cc1oc2ncnc(NC3(C)CC3)c2c1C(=O)N1CCN(c2ccccn2)CC1 [Example 42, 6-Methyl-N-(1-methylcyclopropyl)-5-[4-(pyridin-2-yl)piperazine-1-carbonyl]furo[2,3-d]pyrimidin-4-amine] | >8 |
| Cc1oc2ncnc(NC3(C)CC3)c2c1C(=O)N1CCOC(c2ccc(F)cc2)C1 (stereo not drawn) [Example 122, 5-[2-(4-Fluorophenyl)morpholine-4-carbonyl]-6-methyl-N-(1-methylcyclopropyl)furo[2,3-d]pyrimidin-4-amine] | >8 |
| Cc1cc(C)cc(C2CCN(C(=O)c3c(C)oc4ncnc(NC5(C)CC5)c34)C2)c1 (stereo not drawn) [Example 397, 5-[3-(3,5-Dimethylphenyl)pyrrolidine-1-carbonyl]-6-methyl-N-(1-methylcyclopropyl)furo[2,3-d]pyrimidin-4-amine] | >8 |
| Cc1cc(F)nc(C2CCN(C(=O)c3c(C)oc4ncnc(NC5(C)CC5)c34)C2)c1 (stereo not drawn) [Example 798, 5-[3-(6-Fluoro-4-methylpyridin-2-yl)pyrrolidine-1-carbonyl]-6-methyl-N-(1-methylcyclopropyl)furo[2,3-d]pyrimidin-4-amine] | >8 |

Same assay, conditions: negative log of half-maximal molar inhibitory concentration; 200 nM FAM-cAMP; values given as bins; read-out: PDE1b (pIC50) (converted)

| Compound | IC50 |
| --- | --- |
| Cc1oc2ncnc(NC3(C)CC3)c2c1C(=O)N1CCc2cnc(Cl)nc2C1 [Example 690, 5-{2-Chloro-5H,6H,7H,8H-pyrido[3,4-d]pyrimidine-7-carbonyl}-6-methyl-N-(1-methylcyclopropyl)furo[2,3-d]pyrimidin-4-amine] | 10 to 100 nM |
| Cc1oc2ncnc(NC3(C)CC3)c2c1C(=O)N1CC(c2nccs2)C1 [Example 33, 6-Methyl-N-(1-methylcyclopropyl)-5-[3-(1,3-thiazol-2-yl)azetidine-1-carbonyl]furo[2,3-d]pyrimidin-4-amine] | 10 to 100 nM |
| Cc1oc2ncnc(NC3(C)CC3)c2c1C(=O)N1CCc2nc(C3CC3)ncc2C1 [Example 2, (2-Cyclopropyl-7,8-dihydropyrido[4,3-d]pyrimidin-6(5H)-yl)(6-methyl-4-((1-methylcyclopropyl)amino)furo[2,3-d]pyrimidin-5-yl)methanone] | 10 to 100 nM |
| Cc1nc(CNC(=O)c2c(C)oc3ncnc(NC4(C)CC4)c23)cs1 [Example 97, 6-M ethyl-N-[(2-methyl-1,3-thiazol-4-yl)methyl]-4-[(1-methylcyclopropyl)amino]furo[2,3-d]pyrimidine-5-carboxamide] | 10 to 100 nM |
| Cc1ccnc(CNC(=O)c2c(C)oc3ncnc(NC4(C)CC4)c23)c1 [Example 466, 6-Methyl-4-[(1-methylcyclopropyl)amino]-N-[(4-methylpyridin-2-yl)methyl]furo[2,3-d]pyrimidine-5-carboxamide] | 10 to 100 nM |
| Cc1oc2ncnc(NC3(C)CC3)c2c1C(=O)NCc1ncn(C)n1 [Example 741, 6-Methyl-N-[(1-methyl-1H-1,2,4-triazol-3-yl)methyl]-4-[(1-methylcyclopropyl)amino]furo[2,3-d]pyrimidine-5-carboxamide] | 10 to 100 nM |
| Cc1oc2ncnc(NC3(C)CC3)c2c1C(=O)NC1CCOC1 (stereo not drawn) [Example 106, 6-Methyl-4-[(1-methylcyclopropyl)amino]-N-(oxolan-3-yl)furo[2,3-d]pyrimidine-5-carboxamide] | 10 to 100 nM |
| Cc1oc2ncnc(NC3(C)CC3)c2c1C(=O)N1CCN(c2cncnc2)CC1 [Example 381, 6-Methyl-N-(1-methylcyclopropyl)-5-[4-(pyrimidin-5-yl)piperazine-1-carbonyl]furo[2,3-d]pyrimidin-4-amine] | 10 to 100 nM |
| Cc1oc2ncnc(NC3(C)CC3)c2c1C(=O)NCCc1ccccc1 [Example 195, 6-Methyl-4-[(1-methylcyclopropyl)amino]-N-(2-phenylethyl)furo[2,3-d]pyrimidine-5-carboxamide] | 10 to 100 nM |
| Cc1oc2ncnc(NC3(C)CC3)c2c1C(=O)NC(C)c1ncc(F)cn1 (stereo in doubt) [Example 518, N-[(1S)-1-(5-Fluoropyrimidin-2-yl)ethyl]-6-methyl-4-[(1-methylcyclopropyl)amino]furo[2,3-d]pyrimidine-5-carboxamide] | 100 to 1000 nM |
| Cc1cn(C)nc1NC(=O)c1c(C)oc2ncnc(NC3(C)CC3)c12 [Example 432, N-(1,4-Dimethyl-1H-pyrazol-3-yl)-6-methyl-4-[(1-methylcyclopropyl)amino]furo[2,3-d]pyrimidine-5-carboxamide] | 10 to 100 nM |
| Cc1oc2ncnc(NC3(C)CC3)c2c1C(=O)N1CC(C#N)C2(C1)C(=O)Nc1ccccc12 (stereo not drawn) [Example 377, 1′-{6-Methyl-4-[(1-methylcyclopropyl)amino]furo[2,3-d]pyrimidine-5-carbonyl}-2-oxo-1,2-dihydrospiro[indole-3,3′-pyrrolidine]-4′-carbonitrile] | 10 to 100 nM |
| Cc1oc2ncnc(NC3(C)CC3)c2c1C(=O)Nc1cnc(C2CCOCC2)cn1 [Example 736, 6-Methyl-4-[(1-methylcyclopropyl)amino]-N-[5-(oxan-4-yl)pyrazin-2-yl]furo[2,3-d]pyrimidine-5-carboxamide] | 10 to 100 nM |
| Cc1oc2ncnc(NC3(C)CC3)c2c1C(=O)N1CCCC2(C1)C(=O)Nc1ccccc12 (stereo not drawn) [Example 375, 1′-{6-Methyl-4-[(1-methylcyclopropyl)amino]furo[2,3-d]pyrimidine-5-carbonyl}-1,2-dihydrospiro[indole-3,3′-piperidine]-2-one] | 100 to 1000 nM |
| Cc1oc2ncnc(NC3(C)CC3)c2c1C(=O)NCCC(C)C [Example 168, 6-Methyl-N-(3-methylbutyl)-4-[(1-methylcyclopropyl)amino]furo[2,3-d]pyrimidine-5-carboxamide] | 10 to 100 nM |
| Cc1cc2n(n1)CCN(C(=O)c1c(C)oc3ncnc(NC4(C)CC4)c13)C2 [Example 632, 6-Methyl-5-f{2-methyl-4H,5H,6H,7H-pyrazolo[1,5-a]pyrazine-5-carbonyl}-N-(1-methylcyclopropyl)furo[2,3-d]pyrimidin-4-amine] | 10 to 100 nM |
| Cc1oc2ncnc(NC3(C)CC3)c2c1C(=O)N1CCc2c(F)ncnc2C1 [Example 5, (4-Fluoro-5,8-dihydropyrido[3,4-d]pyrimidin-7(6H)-yl)(6-methyl-4-((1-methylcyclopropyl)amino)furo[2,3-d]pyrimidin-5-yl)methanone] | 10 to 100 nM |
| Cc1oc2ncnc(NC3(C)CC3)c2c1C(=O)NC1(C(F)(F)F)CC1 [Example 86, 6-Methyl-4-[(1-methylcyclopropyl)amino]-N-[1-(trifluoromethyl)cyclopropyl]furo[2,3-d]pyrimidine-5-carboxamide] | 10 to 100 nM |
| Cc1oc2ncnc(NC3(C)CC3)c2c1C(=O)NC1CCCC1 [Example 165, N-Cyclopentyl-6-methyl-4-[(1-methylcyclopropyl)amino]furo[2,3-d]pyrimidine-5-carboxamide] | 10 to 100 nM |
| Cc1nc(CNC(=O)c2c(C)oc3ncnc(NC4(C)CC4)c23)oc1C [Example 728, N-[(Dimethyl-1,3-oxazol-2-yl)methyl]-6-methyl-4-[(1-methylcyclopropyl)amino]furo[2,3-d]pyrimidine-5-carboxamide] | 10 to 100 nM |
| Cc1ccc(NC(=O)c2c(C)oc3ncnc(NC4(C)CC4)c23)nn1 [Example 434, 6-Methyl-4-[(1-methylcyclopropyl)amino]-N-(6-methylpyridazin-3-yl)furo[2,3-d]pyrimidine-5-carboxamide] | 100 to 1000 nM |
| COCCn1cc(NC(=O)c2c(C)oc3ncnc(NC4(C)CC4)c23)cn1 [Example 429, N-[1-(2-Methoxyethyl)-1H-pyrazol-4-yl]-6-methyl-4-[(1-methylcyclopropyl)amino]furo[2,3-d]pyrimidine-5-carboxamide] | 10 to 100 nM |
| Cc1oc2ncnc(NC3(C)CC3)c2c1C(=O)N1CCc2c(ncnc2OCF)C1 [Example 17, 5-[4-(fluoromethoxy)-5H,6H,7H,8H-pyrido[3,4-d]pyrimidine-7-carbonyl]-6-methyl-N-(1-methylcyclopropyl)furo[2,3-d]pyrimidin-4-amine] | 10 to 100 nM |
| COc1ncc2c(n1)CCN(C(=O)c1c(C)oc3ncnc(NC4(C)CC4)c13)C2 [Example 45, 5-{2-Methoxy-5H,6H,7H,8H-pyrido[4,3-d]pyrimidine-6-carbonyl}-6-methyl-N-(1-methylcyclopropyl)furo[2,3-d]pyrimidin-4-amine] | 10 to 100 nM |
| COc1nc(C)ncc1CNC(=O)c1c(C)oc2ncnc(NC3(C)CC3)c12 [Example 676, N-[(4-Methoxy-2-methylpyrimidin-5-yl)methyl]-6-methyl-4-[(1-methylcyclopropyl)amino]furo[2,3-d]pyrimidine-5-carboxamide] | 10 to 100 nM |
